Experimental data from PubChem BioAssay (NCI).
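Compound exposure: 48 hours, 5 concentrations, 96-well plates. GI50 is the concentration that inhibits growth by half. TGI denotes the concentration required for complete inhibition of growth.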

How the values were obtained:
Assay in all cases: inhibition of tumour cell growth, NCI panel, 48 h
M14 melanoma = test system: M14 melanoma
MOLT-4 leukemia = test system: MOLT-4 leukemia
NCI-H522 lung = test system: NCI-H522 lung
786-0 renal = test system: 786-0 renal
OVCAR-5 ovarian = test system: OVCAR-5 ovarian
OVCAR-3 ovarian = test system: OVCAR-3 ovarian
HOP-92 NSCLC = test system: HOP-92 NSCLC
NCI/ADR-RES ovarian = test system: NCI/ADR-RES ovarian
SF-295 CNS = test system: SF-295 CNS
NCI-H226 lung = test system: NCI-H226 lung

SMILES | GI50 (M14 melanoma) | TGI (M14 melanoma) | GI50 (MOLT-4 leukemia) | TGI (MOLT-4 leukemia) | GI50 (NCI-H522 lung) | TGI (NCI-H522 lung) | GI50 (786-0 renal) | TGI (786-0 renal) | GI50 (OVCAR-5 ovarian) | TGI (OVCAR-5 ovarian) | GI50 (OVCAR-3 ovarian) | TGI (OVCAR-3 ovarian) | GI50 (HOP-92 NSCLC) | TGI (HOP-92 NSCLC) | GI50 (NCI/ADR-RES ovarian) | TGI (NCI/ADR-RES ovarian) | GI50 (SF-295 CNS) | TGI (SF-295 CNS) | GI50 (NCI-H226 lung) | TGI (NCI-H226 lung)
OCC1OC(n2cnc3c(NCc4ccco4)ncnc32)C(O)C1O (centres undefined) | 2.44 µM | 17.2 µM | 0.585 µM | 6.25 µM | 1.34 µM | 22 µM | 2.16 µM | 10.3 µM | 4.76 µM | > 100 µM | 1.34 µM | 3.12 µM | 0.442 µM | 5.1 µM | 0.675 µM | > 35.7 µM | 1.21 µM | 8.3 µM | 12 µM | > 71.2 µM
Nc1nc(N)c(-c2ccc(Cl)c(Cl)c2)c(CP(Cl)(Cl)(Cl)Br)n1 | 6.62 µM | > 100 µM | 28.6 µM | > 100 µM | 21.2 µM | > 100 µM | 14.6 µM | > 100 µM | 6.96 µM | > 100 µM | 21.1 µM | > 100 µM | 12.6 µM | 54.3 µM | 11.7 µM | > 100 µM | 6.7 µM | > 100 µM | 99.7 µM | > 100 µM
C/C=C(\C)C(=O)O[C@@H]1C=CC(=O)O[C@H]1CNC(=O)[C@H](C)O | 18.6 µM | 49.1 µM | – | 5.35 µM | 13.1 µM | 30.5 µM | 23.6 µM | 73.5 µM | 32 µM | > 73.2 µM | 17.4 µM | 37.8 µM | 17.4 µM | 37.5 µM | 34.6 µM | > 100 µM | 27.7 µM | > 66.7 µM | 28.9 µM | > 81.4 µM
COc1ccc2nc3ccccc3c(NCc3ccccc3)c2c1 | 1.73 µM | 3.58 µM | 2.76 µM | 11.2 µM | 1.77 µM | 4.6 µM | 1.8 µM | 3.38 µM | 2.25 µM | 7.35 µM | 2.65 µM | 6.89 µM | 2.33 µM | 7.88 µM | 2.09 µM | 6.69 µM | 2.13 µM | 5.86 µM | 2.79 µM | 8.69 µM
Cc1cn(C2CC(O)C(COC(N)=O)O2)c(=O)[nH]c1=O (centres undefined) | – | > 100 µM | – | > 100 µM | – | > 100 µM | – | > 100 µM | – | > 100 µM | – | > 100 µM | – | > 100 µM | – | > 100 µM | – | > 100 µM | – | > 100 µM
